Data published in patent US8791148B2, “Substituted benzimidazolone derivatives, medicaments comprising them and their use” (AbbVie Deutschland GmbH & Co. KG, priority 2006, dated 2014).

target: T1, human vasopressin V1b receptor (Homo sapiens, UniProt P47901); experiment: Vasopressin V1b receptor binding assay; details: membranes from CHO-K1 cells with stably expressed human V1b receptors; displacement of 1.5 nM 3H-AVP; read-out: V1b receptor affinity (affinity constant Ki)
T1 construct: expressed in transfected cells; host or cells: CHO-K1 (cell line hV1b-3H2_CHO), membrane preparation
T1 sequence (P47901 1-424): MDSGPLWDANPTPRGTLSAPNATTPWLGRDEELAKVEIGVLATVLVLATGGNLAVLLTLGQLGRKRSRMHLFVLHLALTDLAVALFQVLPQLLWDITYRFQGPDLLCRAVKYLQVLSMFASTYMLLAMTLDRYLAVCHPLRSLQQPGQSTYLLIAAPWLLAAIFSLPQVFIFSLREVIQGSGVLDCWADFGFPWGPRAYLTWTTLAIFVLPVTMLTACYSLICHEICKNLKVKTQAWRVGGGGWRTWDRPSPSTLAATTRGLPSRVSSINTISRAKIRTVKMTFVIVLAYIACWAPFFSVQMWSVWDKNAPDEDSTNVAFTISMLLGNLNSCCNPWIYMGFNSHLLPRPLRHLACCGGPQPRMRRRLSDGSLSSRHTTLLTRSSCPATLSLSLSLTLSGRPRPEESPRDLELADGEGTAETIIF
How it was run: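 Membranes expressing human V1b receptor were incubated with radioligand and test compound (2% DMSO final) in 50 mM Tris, 10 mM MgCl2, 0.1% BSA, pH 7.4, for 60 min at room temperature, in triplicate. 1 uM AVP defined nonspecific binding. Bound ligand was separated by filtration and counted by scintillation; Ki came from nonlinear regression.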

Ki	SMILES
< 100 nM	CCCN1CCN(C2CCN(C(=O)C(c3ccccc3)n3c(=O)n(S(=O)(=O)c4ccc(OC)cc4)c4cc(Cl)ccc43)C2)CC1 (centres unmarked) [Example 74, 5-Chloro-3-(4-methoxybenzenesulfonyl)-1-{2-oxo-1-phenyl-2-[3-(4-propylpiperazin-1-yl)-pyrrolidin-1-yl]ethyl}-1,3-dihydrobenzimidazol-2-one]
100 to 500 nM	CCCN1CCN(C2CCN(C(=O)C(C)n3c(=O)n(S(=O)(=O)c4ccc(OC)cc4)c4ccc(Cl)cc43)C2)CC1 (centres unmarked) [Example 75, 5-Chloro-1-(4-methoxybenzenesulfonyl)-3-{1-methyl-2-oxo-2-[3-(4-propylpiperazin-1-yl)-pyrrolidin-1-yl]ethyl}-1,3-dihydrobenzimidazol-2-one]
< 100 nM	CCCN1CCN(C2CCN(C(=O)C(c3ccccc3OC)n3c(=O)n(S(=O)(=O)c4ccc(OC)cc4)c4ccc(Cl)cc43)C2)CC1 (centres unmarked) [Example 76, 5-Chloro-1-(4-methoxybenzenesulfonyl)-3-{1-(2-methoxyphenyl)-2-oxo-2-[3-(4-propylpiperazin-1-yl)pyrrolidin-1-yl]ethyl}-1,3-dihydrobenzimidazol-2-one]
< 100 nM	CCCN1CCN(C2CCN(C(=O)C(c3ccc(OC)cc3)n3c(=O)n(S(=O)(=O)c4ccc(OC)cc4)c4ccc(Cl)cc43)C2)CC1 (centres unmarked) [Example 78, 5-Chloro-1-(4-methoxybenzenesulfonyl)-3-{1-(4-methoxyphenyl)-2-oxo-2-[3-(4-propylpiperazin-1-yl)pyrrolidin-1-yl]ethyl}-1,3-dihydrobenzimidazol-2-one]
< 100 nM	CCCN1CCN(C2CCN(C(=O)C(c3cccc(OC)c3)n3c(=O)n(S(=O)(=O)c4ccc(OC)cc4)c4ccc(Cl)cc43)C2)CC1 (centres unmarked) [Example 79, 5-Chloro-1-(4-methoxybenzenesulfonyl)-3-{1-(3-methoxyphenyl)-2-oxo-2-[3-(4-propylpiperazin-1-yl)pyrrolidin-1-yl]-ethyl}-1,3-dihydrobenzimidazol-2-one]
< 100 nM	CCCN1CCN(C2CCN(C(=O)C(c3ccccc3)n3c(=O)n(S(=O)(=O)c4ccc(OC)cc4)c4ccc(I)cc43)C2)CC1 (centres unmarked) [Example 80, 5-Iodo-1-(4-methoxybenzenesulfonyl)-3-{2-oxo-1-phenyl-2-[3-(4-propylpiperazin-1-yl)pyrrolidin-1-yl]ethyl}-1,3-dihydrobenzimidazol-2-one]
100 to 500 nM	CCCN1CCN(C2CCN(C(=O)C(Cc3ccccc3)n3c(=O)n(S(=O)(=O)c4ccc(OC)cc4)c4ccc(Cl)cc43)C2)CC1 (centres unmarked) [Example 81, 3-{1-Benzyl-2-oxo-2-[3-(4-propylpiperazin-1-yl)pyrrolidin-1-yl]ethyl}-5-chloro-1-(4-methoxybenzenesulfonyl)-1,3-dihydrobenzimidazol-2-one]
500 to 10000 nM	COc1ccc(S(=O)(=O)n2c(=O)n(C(C(=O)N3CCN(c4ccccn4)CC3)c3ccccc3)c3cc(Cl)ccc32)cc1 (centres unmarked) [Example 82, 5-Chloro-1-(4-methoxybenzenesulfonyl)-3-[2-oxo-1-phenyl-2-(4-pyridin-2-ylpiperazin-1-yl)ethyl]-1,3-dihydrobenzimidazol-2-one]
500 to 10000 nM	COc1ccc(S(=O)(=O)n2c(=O)n(C(C(=O)N3CCCC3c3ccccc3)c3ccccc3)c3cc(Cl)ccc32)cc1 (centres unmarked) [Example 83, 5-Chloro-1-(4-methoxybenzenesulfonyl)-3-[2-oxo-1-phenyl-2-(2-phenylpyrrolidin-1-yl)ethyl]-1,3-dihydrobenzimidazol-2-one]
500 to 10000 nM	COc1ccc(S(=O)(=O)n2c(=O)n(C(C(=O)N3CCC3)c3ccccc3)c3cc(Cl)ccc32)cc1 (centres unmarked) [Example 84, 3-(2-Azetidin-1-yl-2-oxo-1-phenylethyl)-5-chloro-1-(4-methoxybenzenesulfonyl)-1,3-dihydrobenzimidazol-2-one]
500 to 10000 nM	COc1ccc(S(=O)(=O)n2c(=O)n(CC(=O)N3CCN(C)CC3)c3cc(Cl)ccc32)cc1 [Example 85, 5-Chloro-1-(4-methoxybenzenesulfonyl)-3-[2-(4-methylpiperazin-1-yl)-2-oxoethyl]-1,3-dihydrobenzimidazol-2-one]
500 to 10000 nM	COc1ccc(S(=O)(=O)n2c(=O)n(CC(=O)N3CCN(C4CCN(C)CC4)CC3)c3cc(Cl)ccc32)cc1 [Example 86, 5-Chloro-1-(4-methoxybenzenesulfonyl)-3-{2-[4-(1-methylpiperidin-4-yl)piperazin-1-yl]-2-oxoethyl}-1,3-dihydrobenzimidazol-2-one]
500 to 10000 nM	COc1ccc(S(=O)(=O)n2c(=O)n(CC(=O)N3CCCCC3)c3cc(Cl)ccc32)cc1 [Example 87, 5-Chloro-1-(4-methoxybenzenesulfonyl)-3-(2-oxo-2-piperidin-1-yl-ethyl)-1,3-dihydrobenzimidazol-2-one]
500 to 10000 nM	COc1ccc(S(=O)(=O)n2c(=O)n(C(C(=O)N3CCC(n4ccnc4)CC3)c3ccccc3)c3cc(Cl)ccc32)cc1 (centres unmarked) [Example 88, 5-Chloro-3-[2-(4-imidazol-1-ylpiperidin-1-yl)-2-oxo-1-phenylethyl]-1-(4-methoxybenzenesulfonyl)-1,3-dihydrobenzimidazol-2-one]
500 to 10000 nM	COc1ccc(S(=O)(=O)n2c(=O)n(C(C(=O)N3CCN(c4ncncn4)CC3)c3ccccc3)c3cc(Cl)ccc32)cc1 (centres unmarked) [Example 89, 5-Chloro-1-(4-methoxybenzenesulfonyl)-3-[2-oxo-1-phenyl-2-(4-[1,3,5]triazin-2-ylpiperazin-1-yl)-ethyl]-1,3-dihydrobenzimidazol-2-one]
500 to 10000 nM	COc1ccc(S(=O)(=O)n2c(=O)n(CC(=O)N3CCCC3)c3cc(Cl)ccc32)cc1 [Example 90, 5-Chloro-1-(4-methoxybenzenesulfonyl)-3-(2-oxo-2-pyrrolidin-1-yl-ethyl)-1,3-dihydrobenzimidazol-2-one]
< 100 nM	CCCN1CCN(C2CCN(C(=O)C(c3ccccc3)n3c(=O)n(S(=O)(=O)c4ccc(OC)cc4)c4ccc(Cl)cc43)C2)CC1 (centres unmarked) [Example 91, 5-Chloro-1-(4-methoxybenzenesulfonyl)-3-{2-oxo-1-phenyl-2-[3-(4-propylpiperazin-1-yl)-pyrrolidin-1-yl]ethyl}-1,3-dihydrobenzimidazol-2-one]
100 to 500 nM	COc1ccc(S(=O)(=O)n2c(=O)n(C(C(=O)N3CCC(c4ccncc4)C3)c3ccccc3)c3cc(Cl)ccc32)cc1 (centres unmarked) [Example 92, 5-Chloro-1-(4-methoxybenzenesulfonyl)-3-[2-oxo-1-phenyl-2-(3-pyridin-4-yl-pyrrolidin-1-yl)ethyl]-1,3-dihydrobenzimidazol-2-one]
100 to 500 nM	COc1ccc(S(=O)(=O)n2c(=O)n(C(C(=O)N3CCCC3C(=O)N(C)C)c3ccccc3)c3cc(Cl)ccc32)cc1 (centres unmarked) [Example 93, 1-{2-[6-Chloro-3-(4-methoxybenzenesulfonyl)-2-oxo-2,3-dihydrobenzimidazol-1-yl]-2-phenylacetyl}pyrrolidine-2-dimethylcarboxamide]
500 to 10000 nM	COc1ccc(S(=O)(=O)n2c(=O)n(C(C(=O)N3CCN(c4cccnc4)CC3)c3ccccc3)c3cc(Cl)ccc32)cc1 (centres unmarked) [Example 94, 5-Chloro-1-(4-methoxybenzenesulfonyl)-3-[2-oxo-1-phenyl-2-(4-pyridin-3-ylpiperazin-1-yl)ethyl]-1,3-dihydrobenzimidazol-2-one]
500 to 10000 nM	COc1ccc(S(=O)(=O)n2c(=O)n(CC(=O)N3CCC(N4CCN(C)CC4)CC3)c3cc(Cl)ccc32)cc1 [Example 95, 5-Chloro-1-(4-methoxybenzenesulfonyl)-3-{2-[4-(4-methylpiperazin-1-yl)piperidin-1-yl]-2-oxo-ethyl}-1,3-dihydrobenzimidazol-2-one]
100 to 500 nM	COc1ccc(S(=O)(=O)n2c(=O)n(C(C(=O)N3CCN(CC4CCCN(C)C4)CC3)c3ccccc3)c3cc(Cl)ccc32)cc1 (centres unmarked) [Example 96, 5-Chloro-1-(4-methoxybenzenesulfonyl)-3-{2-[4-(1-methylpiperidin-3-ylmethyl)piperazin-1-yl]-2-oxo-1-phenylethyl}-1,3-dihydrobenzimidazol-2-one]
500 to 10000 nM	COc1ccc(S(=O)(=O)n2c(=O)n(C(C(=O)N(C)C)c3ccccc3)c3cc(Cl)ccc32)cc1 (centres unmarked) [Example 97, 2-[6-Chloro-3-(4-methoxybenzenesulfonyl)-2-oxo-2,3-dihydrobenzimidazol-1-yl]-N,N-dimethyl-2-phenylacetamide]
500 to 10000 nM	COc1ccc(S(=O)(=O)n2c(=O)n(C(C(=O)N3CCN(C)CC3)c3ccccc3)c3cc(Cl)ccc32)cc1 (centres unmarked) [Example 98, 5-Chloro-1-(4-methoxybenzenesulfonyl)-3-[2-(4-methylpiperazin-1-yl)-2-oxo-1-phenylethyl]-1,3-dihydrobenzimidazol-2-one]
500 to 10000 nM	COc1ccc(S(=O)(=O)n2c(=O)n(C(C(=O)N3CCOCC3)c3ccccc3)c3cc(Cl)ccc32)cc1 (centres unmarked) [Example 99, 5-Chloro-1-(4-methoxybenzenesulfonyl)-3-(2-morpholin-4-yl-2-oxo-1-phenylethyl)-1,3-dihydrobenzimidazol-2-one]
500 to 10000 nM	COc1ccc(S(=O)(=O)n2c(=O)n(C(C(=O)NCc3ccccc3)c3ccccc3)c3cc(Cl)ccc32)cc1 (centres unmarked) [Example 100, N-Benzyl-2-[6-chloro-3-(4-methoxybenzenesulfonyl)-2-oxo-2,3-dihydrobenzimidazol-1-yl]-2-phenylacetamide]
